{
  "source": "paper PMC7180452",
  "about": "“Purine and Purine Isostere Derivatives of Ferrocene: An Evaluation of ADME, Antitumor and Electrochemical Properties” (Molecules, 2020)",
  "key": {"[1]": {"assay": "Chrom logD determination (fast-gradient HPLC)", "settings": "pH 7.4", "protocol": "The distribution coefficient Chrom logD, a parameter used to assess the lipophilicity of compounds [36, 37], was determined for novel purine and purine isosteres with a ferrocene motif as shown in Table 1.\nThe distribution coefficient, Chrom logD, was determined from compounds’ gradient retention times by employing a high-performance liquid chromatography method with fast acetonitrile gradient. Compounds were prepared for analysis in final concentration of 1.25 mM by dilution of 10 mM stock solutions in DMSO with acetonitrile. Aqueous mobile phase was 50 mM ammonium acetate adjusted with ammonia solution to pH 7.4 and the organic mobile phase was acetonitrile. A reversed phase HPLC column Luna C18, 50 × 3 mm i.d., 5 µm particle size (Phenomenex, Torrance, CA, USA) was used for analysis. Sample injection volume was 2 µL and the flow rate was 1 mL min^−1. All compounds were analysed in duplicates. Fast-gradient elution was as follows: from 0 to 100% of acetonitrile (0−3 min), 100% of acetonitrile (3.0−3.5 min), from 100 to 0% of acetonitrile (3.5−3.7 min), and re-equilibration with 100% of aqueous mobile phase (3.7−5.0 min). All measurements were performed on an HPLC-DAD instrument Agilent 1100 Series (Agilent Technologies, Santa Clara, CA, USA) coupled with a mass spectrometer Micromass Quattro API (Waters, MA, USA). MassLynx software, version 4.1 (Waters, Manchester, UK) was used for data acquisition and processing. Before compound analysis, a calibration step was performed. A set of standard compounds with literature CHI values [36] were plotted against gradient retention times to obtain a calibration equation, which was used to determine CHI value from the compounds’ retention times."}, "[2]": {"system": "cervical carcinoma (HeLa)", "assay": "In vitro antiproliferative activity, HeLa", "type": "cell-based, human", "settings": "HeLa cells", "procedure": "(§1) Antiproliferative activity of compounds 11a−11c, 12a−12c, 13a−13c, 14a−14c, 15a−15c, 16a, 23a−23c, 24a−24c, 25a−25c, 34a−34c and 35a−35c was evaluated in vitro on four human tumor cell lines (American Type Culture Collection, Manassas, VA, USA): metastatic colorectal adenocarcinoma (SW620), ductal pancreatic adenocarcinoma (CFPAC-1), hepatocellular carcinoma (HepG2) and cervical carcinoma (HeLa) as well as normal skin fibroblasts (HFF)."}, "[3]": {"assay": "Metabolic stability in human liver microsomes", "type": "in vitro ADME", "settings": "for t1/2: 1 µM; for In Vivo CLh / In Vivo CLh (% LBF): human; for In Vivo CLh: predicted in vivo hepatic clearance; for In Vivo CLh (% LBF): predicted, % of liver blood flow", "procedure": "(§2) Metabolic stability of compounds was assessed in human and mouse liver microsomes (Corning, Tewksbury, MA, USA). Compounds, in final concentration of 1 µM, were incubated in phosphate buffer (50 mM, pH 7.4) for 60 min at 37 °C together with liver microsomes and NADPH generating system (nicotinamide adenine dinucleotide phosphate (NADP, 0.5 mM), glucose-6-phosphate (G6P, 5 mM), glucose-6-phosphate dehydrogenase (1.5 U mL^−1) and magnesium chloride (0.5 mM)). Also, compounds were incubated without the presence of NADPH cofactor, as a buffer stability control. Metabolic activity of liver microsomes was verified by including testosterone and propranolol as positive controls, as well as caffeine as a negative control. Sampling was performed at six time points (0, 10, 20, 30, 45 and 60 min), followed by reaction termination by addition of acetonitrile/methanol mixture (2:1, v/v) containing dicofenac as internal standard. Samples were analyzed as previously described for samples from permeability assay. The in vitro half-life (t1/2) was calculated from the slope of the linear regression by plotting ln % remaining of parent compound against incubation time. In vitro intrinsic clearance, CLint was calculated from half-life using following Equation (3):(3) CLint [µL min^−1 mg^−1]=ln2/t1/2×mL per incubation/mg protein per incubation where 52.5 mg protein/g liver is used as a constant.\n(§3) Predicted in vivo hepatic clearance, in vivo CLh was calculated as follows:(4) in vivo CLh [mL min^−1 kg^−1]=CLint×(mg protein/g liver)×Q×(LW/BW) /Q+(CLint×(mg protein/g liver)×(LW/BW)) where: LW/BW = liver weight/body weight [g kg^−1]; 25.7 (human), 87.5 (mouse); Q = LBF = liver blood flow [mL min^−1 kg^−1]; 21/1.26 (human), 131/7.86 (mouse).\n(§4) Predicted in vivo hepatic clearance can be expressed as %LBF and calculated as follows:(5) in vivo CLh [%LBF]=in vivo CLh/LBF×100"}, "[4]": {"system": "metastatic colorectal adenocarcinoma (SW620)", "assay": "In vitro antiproliferative activity, SW620", "type": "cell-based, human", "settings": "SW620 cells", "procedure": "as §1"}, "MDCKII-hMDR1 cells": {"system": "MDCKII-hMDR1 cells", "assay": "Permeability and P-gp substrate assessment in MDCKII-hMDR1 cell monolayer", "type": "in vitro ADME, canine", "settings": "for Permeability classification: MDCKII-hMDR1, in words; for Efflux Ratio (BA/AB) / Papp (AB) / Papp (BA): without P-gp inhibitor; for Papp (AB) / Papp (BA): 10 µM, 60 min", "procedure": "The Madin-Darby canine kidney cells with overexpressed human multidrug-resistant gene (MDCKII-hMDR1) have been frequently used to study bidirectional transport of compounds and assess P-gp substrate potential. Apparent permeability (Papp) values were determined from the amount permeated through the MDCKII-hMDR1 cell monolayer in both the apical-basolateral (AB) and basolateral-apical (BA) direction.\nMDCKII-hMDR1 cell monolayer was used for determination of permeability and P-gp substrate assessment. MDCKII-hMDR1 cells (Solvo Biotechnology, Szeged, Hungary) were grown in the controlled atmosphere (37 °C, 95% humidity, 5% CO2) in MDCK cell culture medium containing Dulbecco’s Modified Eagle Medium (DMEM) + 10% Fetal bovine serum (FBS, inactivated) + 1% glutamax-100 + 1% antibiotic/antimycotic + 1% of Non-essential amino acids Minimum Essential Medium (MEM NEAA). Cultures were split every 3–4 days using 0.05% Trypsin-EDTA. Cells were seeded 4 days prior to the experiment in concentration of 0.3 × 10^6 cells mL^−1 and cultured in CO2 incubator. On the experiment day, cell monolayers were washed with Dulbecco’s phosphate buffer saline (D-PBS) and equilibrated for 45 min in CO2 incubator in D-PBS containing 1% DMSO (1% v/v) with or without Elacridar (2 µM). Compounds, in final concentration of 10 µM, were prepared in transport medium containing Lucifer yellow (100 µM), with DMSO contentment of 1% (v/v) and in the presence and without Elacridar. Lucifer yellow calibration curve was prepared by serial dilution (12 points, with 100 µM as the highest point). Monolayer integrity was examined by fluorescent measurement on a Microplate reader Infinite F500 (Tecan) by using an excitation of 485 nm and emission of 530 nm. Experiment was started by applying the solutions containing test compounds to apical and basolateral side of the cell monolayer. Starting compound concentration (C0) was sampled at the start of the experiment and apical and basolateral compartments were sampled after incubation at 37 °C with gentle shaking for 60 min. Compound were tested in duplicate. Amprenavir was used as a control with low permeability and as a P-gp substrate without inhibitor presence, turning into a highly permeable compound with the inhibitor present.\nSamples were analyzed on an ABSciex API 4000 Triple Quadrupole Mass Spectrometer (Sciex, Division of MDS Inc., Toronto, ON, Canada) coupled to a UHPLC Nexera X2 (Shimadzu, Kyoto, Japan). Samples (1 µL) were injected onto a reversed phase HPLC column Luna Omega Polar C18, 30 × 2.1 mm i.d., 1.6 µm particle size (Phenomenex) which was kept at 50 °C. Aqueous solution was 0.1% formic acid in deionized water and the organic mobile phase was […]. Flow rate was kept at 0.7 mL min^−1 for all measurements. Fast-gradient elution was as follows: 2% of organic mobile phase through 0.15 min, from 2 to 95% of organic mobile phase (0.15−0.7 min), 95% of organic mobile phase (0.7−1.1 min), from 95 to 2% of organic mobile phase (1.1−1.11 min), and re-equilibration with 98% of aqueous mobile phase (1.11−1.5 min). Positive ion mode with turbo spray, an ion source temperature of 550 °C and a dwell time of 75 ms were utilized for mass spectrometric detection. Quantitation was performed using multiple reaction monitoring (MRM) at the specific transition corresponding to the compound of interest. Warfarin was used as an internal standard. The ratios between compound and internal standard peak areas were used instead of real compound concentration. Apparent permeability coefficient, Papp (nm s^−1) values were calculated by using the following Equation (1):Papp [nm s^−1] = (dQ/dT) × (1/C0) × (1/A)(1) where: dQ/dT = permeability rate; C0 = initial concentration in donor compartment; A = surface area of the cell monolayer (0.7 cm^2). […]"}, "[5]": {"assay": "Metabolic stability in mouse liver microsomes", "type": "in vitro ADME", "settings": "for t1/2: mouse liver microsomes, 1 µM; for In Vivo CLh / In Vivo CLh (% LBF): mouse; for In Vivo CLh: predicted in vivo hepatic clearance; for In Vivo CLh (% LBF): predicted, % of liver blood flow", "procedure": "as §2, §3, §4"}},
  "note": "“Also recorded” adds a separate entry of the source.",
  "data": [
    {"smiles": "CC([c-]1cccc1)n1cc(Cn2cnc3ncnc(Cl)c32)nn1.[Fe+2].c1cc[cH-]c1", "note": "(stereo not shown) [Compound 15b, 6-Chloro-7-[1-(1-ferrocenyl-1-methylmethyl-1,2,3-triazol-4-yl)methyl]-7H-purine]", "values": [
      {"measurement": "Chrom logD", "setting": "[1]", "result": 4.15},
      {"measurement": "IC50", "setting": "[2]", "result": "28.97 ± 0.09", "unit": "µM"},
      {"measurement": "t1/2", "setting": "[3]; human liver microsomes", "result": 19.0, "unit": "min"},
      {"measurement": "In Vivo CLh", "setting": "[3]", "result": 20.4, "unit": "mL/min/kg"},
      {"measurement": "In Vivo CLh (% LBF)", "setting": "[3]", "result": 79, "unit": "% LBF"},
      {"measurement": "IC50", "setting": "[4]", "result": "15.5 ± 3.24", "unit": "µM"},
      {"measurement": "Permeability classification", "setting": "MDCKII-hMDR1 cells", "result": "moderate AB permeability"},
      {"measurement": "Efflux Ratio (BA/AB)", "setting": "MDCKII-hMDR1 cells", "result": 10.7},
      {"measurement": "Papp (AB)", "setting": "MDCKII-hMDR1 cells", "result": 3.2, "unit": "×10⁻⁶ cm/s"},
      {"measurement": "Papp (BA)", "setting": "MDCKII-hMDR1 cells", "result": 33.2, "unit": "×10⁻⁶ cm/s"},
      {"measurement": "t1/2", "setting": "[5]", "result": 2.9, "unit": "min"},
      {"measurement": "In Vivo CLh", "setting": "[5]", "result": 25.4, "unit": "mL/min/kg"},
      {"measurement": "In Vivo CLh (% LBF)", "setting": "[5]", "result": 99, "unit": "% LBF"}
    ]},
    {"smiles": "Clc1ncnc2c1ncn2Cc1cn(C[c-]2cccc2)nn1.[Fe+2].c1cc[cH-]c1", "note": "[Compound 13a, 6-Chloro-9-[1-(1-ferrocenymethyl-1,2,3-triazol-4-yl)methyl]-9H-purine]", "values": [
      {"measurement": "Chrom logD", "setting": "[1]", "result": 4.27},
      {"measurement": "IC50", "setting": "[2]", "result": "25.2 ± 4.31", "unit": "µM"},
      {"measurement": "t1/2", "setting": "[3]; human liver microsomes", "result": 38.6, "unit": "min"},
      {"measurement": "Metabolic stability classification", "setting": "[3]; human liver microsomes, in words", "result": "good metabolic stability; also recorded: moderately stable; also recorded: moderate stability"},
      {"measurement": "In Vivo CLh", "setting": "[3]", "result": 16.8, "unit": "mL/min/kg"},
      {"measurement": "In Vivo CLh (% LBF)", "setting": "[3]", "result": 65, "unit": "% LBF"},
      {"measurement": "IC50", "setting": "[4]", "result": "14.4 ± 3.02", "unit": "µM"},
      {"measurement": "Permeability classification", "setting": "MDCKII-hMDR1 cells", "result": "moderate to high AB permeability; also recorded: good permeability"},
      {"measurement": "Efflux Ratio (BA/AB)", "setting": "MDCKII-hMDR1 cells", "result": 2.9},
      {"measurement": "Papp (AB)", "setting": "MDCKII-hMDR1 cells", "result": 8.3, "unit": "×10⁻⁶ cm/s"},
      {"measurement": "Papp (BA)", "setting": "MDCKII-hMDR1 cells", "result": 23.8, "unit": "×10⁻⁶ cm/s"},
      {"measurement": "t1/2", "setting": "[5]", "result": 5.5, "unit": "min"},
      {"measurement": "In Vivo CLh", "setting": "[5]", "result": 25.1, "unit": "mL/min/kg"},
      {"measurement": "In Vivo CLh (% LBF)", "setting": "[5]", "result": 98, "unit": "% LBF"}
    ]},
    {"smiles": "Clc1ncnc2c1ccn2Cc1cn(-[c-]2cccc2)nn1.[Fe+2].c1cc[cH-]c1", "note": "[Compound 11c, 4-Chloro-7-[1-(1-ferrocenyl-1,2,3-triazol-1-yl)methyl]-7H-pyrrolo[2,3-d]pyrimidine]", "values": [
      {"measurement": "Chrom logD", "setting": "[1]", "result": 5.62},
      {"measurement": "IC50", "setting": "[2]", "result": "27.7 ± 3.23", "unit": "µM"},
      {"measurement": "t1/2", "setting": "[3]; human liver microsomes", "result": 4.1, "unit": "min"},
      {"measurement": "In Vivo CLh", "setting": "[3]", "result": 24.3, "unit": "mL/min/kg"},
      {"measurement": "In Vivo CLh (% LBF)", "setting": "[3]", "result": 95, "unit": "% LBF"},
      {"measurement": "IC50", "setting": "[4]", "result": "9.07 ± 1.21", "unit": "µM"},
      {"measurement": "Permeability classification", "setting": "MDCKII-hMDR1 cells", "result": "moderate AB permeability"},
      {"measurement": "Efflux Ratio (BA/AB)", "setting": "MDCKII-hMDR1 cells", "result": 2.9},
      {"measurement": "Papp (AB)", "setting": "MDCKII-hMDR1 cells", "result": 5.3, "unit": "×10⁻⁶ cm/s"},
      {"measurement": "Papp (BA)", "setting": "MDCKII-hMDR1 cells", "result": 14.9, "unit": "×10⁻⁶ cm/s"},
      {"measurement": "t1/2", "setting": "[5]", "result": 1.3, "unit": "min"},
      {"measurement": "In Vivo CLh", "setting": "[5]", "result": 25.6, "unit": "mL/min/kg"},
      {"measurement": "In Vivo CLh (% LBF)", "setting": "[5]", "result": 99, "unit": "% LBF"}
    ]}
  ]
}
